# According to patent US20140107109A1, “AMINO-DIHYDROTHIAZINE AND AMINO-DIOXIDO DIHYDROTHIAZINE COMPOUNDS AS BETA-SECRETASE ANTAGONISTS AND METHODS OF USE” (Amgen Inc., priority 2012, published 2014):
# Where two headings read alike, the source gives them in different places.
# Key:
# [1] = molecular target: Beta Secretase enzyme (BACE1) (Homo sapiens, UniProt P56817); experiment: In vitro enzymatic BACE FRET assay; type: biochemical; settings: read-out: BACE1 FRET assay IC50
# Method in brief: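 Readout: dequenched fluorescence (ex 488 nm/[…]) after neutralizing with Tris buffer. Reactions, begun by adding 50 nM quenched peptide substrate spanning the BACE cleavage site, were incubated one hour at pH 4.2 in 0.05 M acetate with 100 uM genapol and 10% final DMSO.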
# [2] = test system: Aβ40 in conditioned medium of cells stably expressing Amyloid Precursor Protein (APP); experiment: In vitro BACE cell-based assay (HEK cell assay), Aβ40 sandwich ELISA
# Method in brief: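 Aβ40 in conditioned medium was quantified by time-resolved fluorescence sandwich ELISA (pAb40 capture 3 h at 4 °C, biotin-6E10 detection 2 h at 4 °C) after 24 h compound exposure of APP-expressing cells. Doses spanned 10 points from 100 μM or 10 μM top, 0.1% DMSO; IC50 was derived from percent of control.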
# [3] = molecular target: T1, Cathepsin D (Cat D) (Homo sapiens, UniProt P07339); experiment: In vitro enzymatic Cathepsin D (Cat D) FRET assay; type: biochemical; settings: read-out: CatD IC50
# T1 construct: Recombinant Cat D was expressed in CHO cells; made in house; host or cells: CHO cells
# T1 sequence (P07339 65-412, species assumed): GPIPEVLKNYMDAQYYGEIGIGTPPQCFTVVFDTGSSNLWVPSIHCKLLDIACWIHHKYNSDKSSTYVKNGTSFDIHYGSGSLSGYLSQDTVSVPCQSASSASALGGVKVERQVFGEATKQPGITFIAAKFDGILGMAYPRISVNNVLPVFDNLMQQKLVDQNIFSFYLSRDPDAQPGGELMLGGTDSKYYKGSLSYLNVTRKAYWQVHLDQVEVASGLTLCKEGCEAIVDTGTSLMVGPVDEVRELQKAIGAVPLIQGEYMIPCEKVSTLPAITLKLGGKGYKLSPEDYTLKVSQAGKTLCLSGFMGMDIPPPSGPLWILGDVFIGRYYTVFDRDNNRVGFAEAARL
# Method in brief: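 FRET read-out: a fluorophore/quencher-labelled peptide substrate is cleaved by 9 nM Cat D (recombinant, CHO-expressed) following a one-hour preincubation with inhibitor dilutions in DMSO. Tris buffer added to neutralize pH ends the reaction before fluorescence measurement.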
# [4] = Homo sapiens, HEK293, average IC50, HEK cell assay
# [5] = Homo sapiens, HEK293, average IC50, cell assay
# [6] = Homo sapiens, HEK293, average IC50, HEK cells
# Sequence of Beta Secretase enzyme (BACE1) (P56817 46-501): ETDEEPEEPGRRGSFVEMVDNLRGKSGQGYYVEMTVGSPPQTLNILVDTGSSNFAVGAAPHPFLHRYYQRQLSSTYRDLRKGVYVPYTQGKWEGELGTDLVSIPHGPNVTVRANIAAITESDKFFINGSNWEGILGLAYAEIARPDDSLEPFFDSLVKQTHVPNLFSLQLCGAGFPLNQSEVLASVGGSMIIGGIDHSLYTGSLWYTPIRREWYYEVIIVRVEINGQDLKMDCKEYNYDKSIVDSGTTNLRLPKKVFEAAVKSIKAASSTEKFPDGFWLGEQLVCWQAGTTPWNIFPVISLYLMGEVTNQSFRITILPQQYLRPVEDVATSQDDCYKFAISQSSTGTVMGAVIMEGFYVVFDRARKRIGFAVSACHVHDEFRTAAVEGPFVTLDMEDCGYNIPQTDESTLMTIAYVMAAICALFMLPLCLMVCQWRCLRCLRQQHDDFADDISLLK
Compound,IC50 [3],"IC50 ([1]; average IC50, enzyme assay)","IC50 [2, 5]",other results
"COc1ccc(CSc2ccc(F)c([C@]3(C)CS(=O)(=O)C(C)(C)C(N)=N3)c2)cc1 [Example 252, (5R)-5-(2-fluoro-5-((4-methoxybenzyl)sulfanyl)phenyl)-2,2,5-trimethyl-5,6-dihydro-2H-1,4-thiazin-3-amine 1,1-dioxide]",35.9 µM,1.21 µM,1.9 µM,
"CC1(C)C(N)=N[C@](C)(c2cc(Nc3nccc4cc(Cl)cnc34)ccc2F)[C@@H](F)S1(=O)=O [Example 168, (2S,3R)-5-amino-3-(5-((3-chloro-1,7-naphthyridin-8-yl)amino)-2-fluorophenyl)-2-fluoro-3,6,6-trimethyl-3,6-dihydro-2H-1,4-thiazine 1,1-dioxide]",66.8 µM,0.00092 µM,0.0167 µM,
"CC1(C)C(N)=N[C@](C)(c2cc(Oc3cc(N)nc(N)n3)ccc2F)CS1(=O)=O [Example 268, 6-(3-((3R)-5-amino-3,6,6-trimethyl-1,1-dioxido-3,6-dihydro-2H-1,4-thiazin-3-yl)-4-fluorophenoxy)-2,4-pyrimidinediamine]",920 µM,0.318 µM,0.305 µM,
"Cc1cc(Cl)cnc1C(=O)Nc1cnc(F)c([C@]2(C)CS(=O)(=O)C3(CC3)C(N)=N2)c1 [Example 186, (R)—N-(5-(8-amino-6-methyl-4,4-dioxido-4-thia-7-azaspiro[2.5]oct-7-en-6-yl)-6-fluoropyridin-3-yl)-5-chloro-3-methylpicolinamide]",65.7 µM,,,"IC50 ([1]; average IC50): 0.0024 µM; IC50 [2, 6]: 0.0043 µM"
"CC1(C)C(N)=N[C@](C)(c2cc(Nc3nccc4cc(OCC5CC5)cnc34)ccc2F)CS1(=O)=O [Example 260, N-(3-((3R)-5-amino-3,6,6-trimethyl-1,1-dioxido-3,6-dihydro-2H-1,4-thiazin-3-yl)-4-fluorophenyl)-3-(cyclopropylmethoxy)-1,7-naphthyridin-8-amine]",250 µM,0.0038 µM,0.0075 µM,
"Cc1cc(OC2COC2)cnc1C(=O)Nc1ccc(F)c([C@]2(CF)CS(=O)(=O)C(C)(C)C(N)=N2)c1 [Example 150, (S)—N-(3-(5-amino-3-(fluoromethyl)-6,6-dimethyl-1,1-dioxido-3,6-dihydro-2H-1,4-thiazin-3-yl)-4-fluorophenyl)-3-methyl-5-(oxetan-3-yloxy)picolinamide]",622 µM,0.0445 µM,0.528 µM,
"C[C@]1(F)C(N)=N[C@](C)(c2cc(Nc3ncnc4cc(Cl)cnc34)ccc2F)CS1(=O)=O [Example 175, (3R,6R)-5-Amino-3-((5-(7-chloropyrido[3,2-d]pyrimidin-4-yl)amino)-2-fluorophenyl)-6-fluoro-3,6-dimethyl-3,6-dihydro-2H-1,4-thiazine 1,1-dioxide]",75.8 µM,0.00388 µM,0.103 µM,
"CCOc1cnc2c(Nc3ccc(F)c([C@]4(CF)CS(=O)(=O)C5(CCC5)C(N)=N4)c3)nccc2n1 [Example 238, N-(3-((7S)-9-amino-7-(fluoromethyl)-5,5-dioxido-5-thia-8-azaspiro[3.5]non-8-en-7-yl)-4-fluorophenyl)-2-ethoxypyrido[3,4-b]pyrazin-5-amine]",> 400 µM,0.00399 µM,0.117 µM,
"N-(3-((7R)-9-amino-7-(fluoromethyl)-5,5-dioxido-5-thia-8-azaspiro[3.5]non-8-en-7-yl)-4-fluorophenyl)-5-(difluoromethoxy)-3-methyl-2-pyridinecarboxamide, N-(3-((7S)-9-amino-7-(fluoromethyl)-5,5-dioxido-5-thia-8-azaspiro[3.5]non-8-en-7-yl)-4-fluorophenyl)-5-(difluoromethoxy)-3-methyl-2-pyridinecarboxamide [Example 410]",170 µM,,,IC50 [1]: 0.0023 µM; IC50 [2]: 0.0119 µM
"CC(C)(C)Cc1ccc(Oc2ccc(F)c([C@]3(C)CS(=O)(=O)C(C)(C)C(N)=N3)c2)nc1 [Example 257, (5R)-5-(5-((5-(2,2-dimethylpropyl)-2-pyridinyl)oxy)-2-fluorophenyl)-2,2,5-trimethyl-5,6-dihydro-2H-1,4-thiazin-3-amine 1,1-dioxide]",187 µM,18.9 µM,7.79 µM,
"CC1(C)C(N)=N[C@](C)(c2cc(Oc3ccccn3)ccc2F)CS1(=O)=O [Example 103, (R)-5-amino-3-(2-fluoro-5-(pyridin-2-yloxy)phenyl)-3,6,6-trimethyl-3,6-dihydro-2H-1,4-thiazine 1,1-dioxide]",246 µM,,,"IC50 [1]: 0.119 µM; IC50 ([2]; Homo sapiens, HEK293, Aβ40, 24 h incubation): 0.213 µM"
"Cc1cc(OC(F)F)cnc1C(=O)Nc1ccc(F)c([C@]2(CF)CS(=O)(=O)C(C)(C)C(N)=N2)c1 [Example 148, (S)—N-(3-(5-amino-3-(fluoromethyl)-6,6-dimethyl-1,1-dioxido-3,6-dihydro-2H-1,4-thiazin-3-yl)-4-fluorophenyl)-5-(difluoromethoxy)-3-methylpicolinamide]",213 µM,,,"IC50 [1]: 0.00163 µM; IC50 ([2]; Homo sapiens, HEK293): 0.0091 µM"
CC1(C)C(N)=N[C@](C)(c2cc(Br)ccc2F)C2(CC2)S1(=O)=O [Example 187],> 400 µM,,,"IC50 ([1]; average IC50): 30.7 µM; IC50 [2, 6]: > 15.6 µM"

# Second part, led by results:
IC50 [3],"IC50 ([1]; average IC50, enzyme assay)","IC50 [2, 5]",Compound,other results
282 µM,,,"CC1(C)C(N)=N[C@](CF)(c2cc(NC(=O)c3ncc(Cl)nc3Cl)ccc2F)CS1(=O)=O [Example 380, N-(3-((3S)-5-amino-3-(fluoromethyl)-6,6-dimethyl-1,1-dioxido-3,6-dihydro-2H-1,4-thiazin-3-yl)-4-fluorophenyl)-3,5-dichloro-2-pyrazinecarboxamide]","IC50 [1]: 0.0018 µM; IC50 ([2]; Homo sapiens, HEK293): 0.999 µM"
> 400 µM,0.00047 µM,,"CC1(C)C(N)=N[C@](C)(c2cc(NC(=O)c3ncc(Cl)cc3F)ccc2F)C(F)S1(=O)=O (stereo partly drawn) [Example 329, N-(3-((3R)-5-amino-2-fluoro-3,6,6-trimethyl-1,1-dioxido-3,6-dihydro-2H-1,4-thiazin-3-yl)-4-fluorophenyl)-5-chloro-3-fluoro-2-pyridinecarboxamide]","IC50 [2, 4]: 0.0058 µM"
533 µM,0.0014 µM,,"COc1cnc(C(=O)Nc2ccc(F)c([C@@]3(C)N=C(N)C(C)(C)S(=O)(=O)C3F)c2)c(Cl)c1 (stereo partly drawn) [Example 336, N-(3-((3R)-5-amino-2-fluoro-3,6,6-trimethyl-1,1-dioxido-3,6-dihydro-2H-1,4-thiazin-3-yl)-4-fluorophenyl)-3-chloro-5-methoxy-2-pyridinecarboxamide]","IC50 [2, 4]: 0.0053 µM"
> 400 µM,,,"COCc1cc(Cl)cnc1C(=O)Nc1ccc(F)c([C@]2(CF)CS(=O)(=O)C3(CCC3)C(N)=N2)c1 [Example 370, N-(3-((7S)-9-amino-7-(fluoromethyl)-5,5-dioxido-5-thia-8-azaspiro[3.5]non-8-en-7-yl)-4-fluorophenyl)-5-chloro-3-(methoxymethyl)-2-pyridinecarboxamide]","IC50 [1]: 0.00081 µM; IC50 ([2]; Homo sapiens, HEK293): 0.0273 µM"
111 µM,0.0006 µM,0.0314 µM,"CC1(C)C(N)=N[C@](CF)(c2cc(Nc3ncc(F)c4cc(O)cnc34)ccc2F)CS1(=O)=O [Example 433, 8-((3-((3S)-5-amino-3-(fluoromethyl)-6,6-dimethyl-1,1-dioxido-3,6-dihydro-2H-1,4-thiazin-3-yl)-4-fluorophenyl)amino)-5-fluoro-1,7-naphthyridin-3-ol]",
36.6 µM,0.0412 µM,,"CC1(C)C(N)=N[C@](C)(c2cc(NC(=O)c3cnc4ccccc4n3)ccc2F)CS1(=O)=O [Example 316, N-(3-((3R)-5-amino-3,6,6-trimethyl-1,1-dioxido-3,6-dihydro-2H-1,4-thiazin-3-yl)-4-fluorophenyl)-2-quinoxalinecarboxamide]","IC50 [2, 4]: 0.018 µM"
> 400 µM,0.00045 µM,,"CC1(C)C(N)=N[C@](C)(c2cc(NC(=O)c3cnc(OCC(F)(F)F)cn3)ccc2F)CS1(=O)=O [Example 346, N-(3-((3R)-5-amino-3,6,6-trimethyl-1,1-dioxido-3,6-dihydro-2H-1,4-thiazin-3-yl)-4-fluorophenyl)-5-(2,2,2-trifluoroethoxy)-2-pyrazinecarboxamide]","IC50 [2, 4]: 0.0014 µM"
567 µM,0.298 µM,0.131 µM,"COc1ncc(NC(=O)c2ccccn2)cc1[C@]1(C)CS(=O)(=O)C(C)(C)C(N)=N1 [Example 424, N-(5-((3R)-5-amino-3,6,6-trimethyl-1,1-dioxido-3,6-dihydro-2H-1,4-thiazin-3-yl)-6-methoxy-3-pyridinyl)-2-pyridinecarboxamide]",
106 µM,,,"Cc1cc(OC(F)F)cnc1C(=O)Nc1cnc(F)c([C@]2(C)CS(=O)(=O)C3(CC3)C(N)=N2)c1 [Example 454, N-(5-((6R)-8-amino-6-methyl-4,4-dioxido-4-thia-7-azaspiro[2.5]oct-7-en-6-yl)-6-fluoro-3-pyridinyl)-5-(difluoromethoxy)-3-methyl-2-pyridinecarboxamide]","IC50 ([1]; average IC50): 0.0031 µM; IC50 [2, 6]: 0.0039 µM"
